From patent US10457710B2, “Antimicrobial peptides, their variants and uses” (priority 2015, dated 2019)
Where a SMILES comes first, the peptide text is derived from it. Where no end group is shown, it is not given here. [ ]: non-standard residue; d: D form.

Experiments:
S. aureus RN4220 = assay type: cell-based; settings: antibiotic sensitive strain S. aureus RN4220
Description: (§1) Minimum inhibition concetrations (MICs) were determined against Escherichia coli (ATCC 25922), Staphylococcus aureus (ATCC 25923), Klebsiella pneumoniae (ATCC 10031) and Pseudomonas aeruginosa (ATCC 27853). Also clinical strains of E. coli, K. pneumoniae, E. cloacae, P. aeruginosa, Serratia marcescens, Proteus mirabilis, S. pneumoniae, Acinetobacter baumannii, A. johnsonii and S. aureus were used for MICs assays. Additionally, clinical strains of yeast including Candida albicans, C. glabrata, C. parapsilosis and C. quillermondiae were used. The susceptibility of these microorganisms to Chain peptides were determined using micro broth dilution assay. Colonies of the respective microorganism from Muller Hinton (MH) agar plates incubated overnight were suspended in MH broth media and final concentration of microorganism was adjusted to 5.0×10^5 cfu/ml. An aliquot of 10 μl of each Chain peptide, or gentamicin, tetracycline as reference antibiotics were added in differing concentrations along with 90 μl of bacterial suspension to 96 well polypropylene plates and incubated at 37° C. for 20 to 24 hours. Concentrations of Chain peptides and reference antibiotics ranged from 0.125 to 128 μg/ml and the MICs were recorded as the lowest concentration with no visual growth of bacteria. Similarly, antifungal MICs were tested in Potato dextrose broth.
(§2) Peptides Chain 104, Chain 105, Chain 201, Chain 308, Chain 310 were tested against antibiotic-sensitive strains of S. aureus RN4220 and methicillin resistant strains of S. aureus COL (MRSA). Chain peptides comprising of either L- or D-form amino acids were tested against these bacteria, and the D-form peptides were found have better activity compared to L-form (Table 6). Synergistic activity of chain peptides along with Ertapenem (4 μg/ml) was tested to know whether it will influence the activity against MRSA strains. […] Chain 310 has the best antibacterial activity against the MRSA strains with a MIC of 0.06 & 0.03 μg/ml along with Ertapenem (4 μg/ml) for both forms of L and D-peptides (Table 6).

MRSA strains = test: MIC, synergistic activity with Ertapenem (4 μg/ml); assay type: cell-based, S. aureus; settings: S. aureus COL with 4 μg/ml Ertapenem (synergistic activity)
Description: as §2

Candida albicans = test: MIC, clinical yeast strains; assay type: cell-based
Description: as §1
(§3) Clinical strains of yeasts including Candida albicans, C. glabrata, C. parapsilosis and C. quillermondiae were also tested with the 12 Chain peptides. The minimum inhibitory concentration (MICs) varied between these peptides and are presented in Tables 4a, 4b, 4c and 5a, 5b, 5c. Peptides Chain 105, 201 and 308 are broad spectrum antimicrobials with MICs between 0.5-32 μg/ml against all the bacteria and yeasts tested, except Serratia marcescens and Proteus mirabilis, against which the MICs were between 64-128 μg/ml. Peptide Chain 306 has narrow spectrum activity against E. coli at 1 μg/ml and for the rest of the bacterial strains at >32 μg/ml (FIG. 10c).

C. parapsilosis = test: MIC, clinical yeast strains; assay type: cell-based
Description: as §1, §3

C. glabrata = test: MIC, clinical yeast strains; assay type: cell-based
Description: as §1, §3

C. quillermondiae = test: MIC, clinical yeast strains; assay type: cell-based; design: Minimum inhibitory concentration: unit: μg/ml; settings: C. quillermondiae clinical yeast strain 1
Description: as §1, §3

[1] = tested on: clinical strains of E. cloacae; test: MIC, microdilution, clinical strains; assay type: cell-based; settings: 0.02% BSA, 0.2% acetic acid
Description: as §1, §3

[2] = tested on: clinical strains of S. pneumoniae; test: MIC, microdilution, clinical strains; assay type: cell-based; settings: 0.02% BSA, 0.2% acetic acid
Description: as §1, §3

[3] = tested on: clinical strains of P. aeruginosa; test: MIC, microdilution, clinical strains; assay type: cell-based; settings: 0.02% BSA, 0.2% acetic acid
Description: as §1, §3

[4] = tested on: clinical strains of K. pneumoniae; test: MIC, microdilution, clinical strains; assay type: cell-based; settings: 0.02% BSA, 0.2% acetic acid
Description: as §1, §3

[5] = tested on: clinical strains of Proteus mirabilis; test: MIC, microdilution, clinical strains; assay type: cell-based; settings: 0.02% BSA, 0.2% acetic acid
Description: as §1, §3

[6] = tested on: clinical strains of S. aureus; test: MIC, microdilution, clinical strains; assay type: cell-based; settings: 0.02% BSA, 0.2% acetic acid
Description: as §1, §3

[7] = tested on: clinical strains of E. coli; test: MIC, microdilution, clinical strains; assay type: cell-based; settings: microdilution, Muller Hinton broth-cation adjusted, 0.02% BSA, 0.2% acetic acid
Description: as §1, §3

[8] = tested on: clinical strains of Serratia marcescens; test: MIC, microdilution, clinical strains; assay type: cell-based; settings: 0.02% BSA, 0.2% acetic acid
Description: as §1, §3

With `CC[C@@H](C)[C@@H](NC(=O)[C@@H](CCSC)NC(=O)[C@@H](C)NC(=O)[C@@H](CCCNC(=N)N)NC(=O)[C@@H](Cc1c[nH]c2ccccc12)NC(=O)[C@@H](CCCCN)NC(=O)[C@H](N)CCCNC(=N)N)C(=O)N[C@H](CCCNC(=N)N)C(=O)N[C@H](CC(C)C)C(=O)N[C@H](Cc1c[nH]cn1)C(=O)N[C@H](C)C(=O)N[C@H](CCCCN)C(=O)N[C@H](Cc1c[nH]c2ccccc12)C(=O)N[C@H](CC(C)C)C(=O)N[C@H](CCCNC(=N)N)C(=O)N[C@H](CCCCN)C(=O)O` [105 D] (H-[dR][dK][dW][dR][dA][dM][dI][dR][dL][dH][dA][dK][dW][dL][dR][dK]-OH) the “Minimum inhibitory concentration (MICs), S. aureus RN4220” value (S. aureus RN4220) was 16 µg/mL and the “Minimum inhibitory concentration (MICs), S. aureus COL + 4 μg/ml Ertapenem” value (MRSA strains) was 2 µg/mL.

With `CC(C)C[C@@H](NC(=O)[C@@H](CCCCN)NC(=O)[C@@H](CCCCN)NC(=O)[C@@H](Cc1ccccc1)NC(=O)[C@@H](CC(C)C)NC(=O)[C@@H](Cc1c[nH]c2ccccc12)NC(=O)[C@@H](CCCNC(=N)N)NC(=O)[C@@H](Cc1c[nH]c2ccccc12)NC(=O)[C@@H](CCCCN)NC(=O)[C@@H](CCCNC(=N)N)NC(=O)[C@H](N)CCCCN)C(=O)O` [310 D] (H-[dK][dR][dK][dW][dR][dW][dL][dF][dK][dK][dL]-OH) the “Minimum inhibitory concentration (MICs), S. aureus RN4220” value (S. aureus RN4220) was greater than 64 µg/mL and the “Minimum inhibitory concentration (MICs), S. aureus COL + 4 μg/ml Ertapenem” value (MRSA strains) was less than 0.03 µg/mL.

RLKWFLLFRKR [Compound 308] was tested, and the “Minimum inhibitory concentration (MICs), S. aureus RN4220” value (S. aureus RN4220) was greater than 64 µg/mL and the “Minimum inhibitory concentration (MICs), S. aureus COL + 4 μg/ml Ertapenem” value (MRSA strains) was 0.5 µg/mL.

With RKWRAMIRLHAKRLRK [Compound 104] the “Minimum inhibitory concentration (MICs), S. aureus RN4220” value (S. aureus RN4220) was greater than 64 µg/mL and the “Minimum inhibitory concentration (MICs), S. aureus COL + 4 μg/ml Ertapenem” value (MRSA strains) was 0.25 µg/mL.

With `CC[C@@H](C)[C@@H](NC(=O)[C@@H](Cc1c[nH]c2ccccc12)NC(=O)[C@H](N)CCCCN)C(=O)N[C@@H](C(=O)N[C@H](Cc1c[nH]c2ccccc12)C(=O)N[C@H](CCCNC(=N)N)C(=O)N[C@H](Cc1c[nH]c2ccccc12)C(=O)N[C@H](CCCNC(=N)N)C(=O)N[C@H](Cc1ccccc1)C(=O)N[C@H](CCCCN)C(=O)N[C@H](CCCNC(=N)N)C(=O)O)C(C)C` [201 D] (H-[dK][dW][dI][dV][dW][dR][dW][dR][dF][dK][dR]-OH) the “Minimum inhibitory concentration (MICs), S. aureus RN4220” value (S. aureus RN4220) was 2 µg/mL and the “Minimum inhibitory concentration (MICs), S. aureus COL + 4 μg/ml Ertapenem” value (MRSA strains) was 1 µg/mL.

Molecule `CC(C)C[C@@H](NC(=O)[C@@H](Cc1c[nH]c2ccccc12)NC(=O)[C@@H](Cc1ccccc1)NC(=O)[C@@H](Cc1c[nH]c2ccccc12)NC(=O)[C@@H](CCCCN)NC(=O)[C@@H](CCCNC(=N)N)NC(=O)[C@H](N)Cc1c[nH]c2ccccc12)C(=O)N[C@H](Cc1ccccc1)C(=O)N[C@H](CCCCN)C(=O)N[C@H](CCCCN)C(=O)N[C@H](CCCNC(=N)N)C(=O)O` [Chain309D] (H-[dW][dR][dK][dW][dF][dW][dL][dF][dK][dK][dR]-OH) has a Minimum inhibitory concentration (Candida albicans; Candida albicans clinical yeast strain 1) of 32, a Minimum inhibitory concentration (Candida albicans; Candida albicans clinical yeast strain 2) of 32 and a Minimum inhibitory concentration (Candida albicans; Candida albicans clinical yeast strain 3) of 16. For the same molecule, the Minimum inhibitory concentration (Candida albicans; Candida albicans clinical yeast strain 4) was 16, the Minimum inhibitory concentration (Candida albicans; Candida albicans clinical yeast strain 5) was 32 and the Minimum inhibitory concentration (C. parapsilosis; C. parapsilosis clinical yeast strain 1) was 64. The Minimum inhibitory concentration (C. parapsilosis; C. parapsilosis clinical yeast strain 2) was 64, the Minimum inhibitory concentration (C. parapsilosis; C. parapsilosis clinical yeast strain 3) was 32 and the Minimum inhibitory concentration (C. parapsilosis; C. parapsilosis clinical yeast strain 4) was 16. The Minimum inhibitory concentration (C. glabrata; C. glabrata clinical yeast strain 1) was 32, the Minimum inhibitory concentration (C. glabrata; C. glabrata clinical yeast strain 2) was 64 and the Minimum inhibitory concentration (C. glabrata; C. glabrata clinical yeast strain 3) was 4. The Minimum inhibitory concentration (C. glabrata; C. glabrata clinical yeast strain 4) was 128, the Minimum inhibitory concentration (C. quillermondiae) was 8 and the Minimum inhibitory concentration ([1]; Enterobacter cloacae strain 1, Muller Hinton broth-cation adjusted) was greater than 128. The Minimum inhibitory concentration ([1]; Enterobacter cloacae strain 2, Muller Hinton broth-cation adjusted) was 128, the Minimum inhibitory concentration ([1]; Enterobacter cloacae strain 3, Muller Hinton broth-cation adjusted) was 64 and the Minimum inhibitory concentration ([1]; Enterobacter cloacae strain 4, Muller Hinton broth-cation adjusted) was 64. For the same molecule, the Minimum inhibitory concentration ([1]; Enterobacter cloacae strain 5, Muller Hinton broth-cation adjusted) was 32, the Minimum inhibitory concentration ([2]; Streptococcus pneumoniae strain 1, Muller Hinton broth-cation adjusted) was 64 and the Minimum inhibitory concentration ([2]; Streptococcus pneumoniae strain 2, Muller Hinton broth-cation adjusted) was 64. It also gave a Minimum inhibitory concentration ([2]; Streptococcus pneumoniae strain 3, Muller Hinton broth-cation adjusted) of 64, a Minimum inhibitory concentration ([2]; Streptococcus pneumoniae strain 4, Muller Hinton broth-cation adjusted) of 64 and a Minimum inhibitory concentration ([2]; Streptococcus pneumoniae strain 5, Muller Hinton broth-cation adjusted) of 64. For the same molecule, the Minimum inhibitory concentration ([3]; Pseudomonas aeruginosa strain 1, Muller Hinton broth-cation adjusted) was 16, the Minimum inhibitory concentration ([3]; Pseudomonas aeruginosa strain 2, Muller Hinton broth-cation adjusted) was 32 and the Minimum inhibitory concentration ([3]; Pseudomonas aeruginosa strain 3, Muller Hinton broth-cation adjusted) was 16. The Minimum inhibitory concentration ([3]; Pseudomonas aeruginosa strain 4, Muller Hinton broth-cation adjusted) was 32, the Minimum inhibitory concentration ([3]; Pseudomonas aeruginosa strain 5, Muller Hinton broth-cation adjusted) was 8 and the Minimum inhibitory concentration ([4]; Klebsiella pneumoniae strain 1, Muller Hinton broth-cation adjusted) was 128. For the same molecule, the Minimum inhibitory concentration ([4]; Klebsiella pneumoniae strain 2, Muller Hinton broth-cation adjusted) was 32, the Minimum inhibitory concentration ([4]; Klebsiella pneumoniae strain 3, Muller Hinton broth-cation adjusted) was greater than 128 and the Minimum inhibitory concentration ([4]; Klebsiella pneumoniae strain 4, Muller Hinton broth-cation adjusted) was 32. The Minimum inhibitory concentration ([4]; Klebsiella pneumoniae strain 5, Muller Hinton broth-cation adjusted) was 128, the Minimum inhibitory concentration ([5]; Proteus mirabilis strain 1, Muller Hinton broth-cation adjusted) was greater than 128 and the Minimum inhibitory concentration ([5]; Proteus mirabilis strain 2, Muller Hinton broth-cation adjusted) was greater than 128. The Minimum inhibitory concentration ([5]; Proteus mirabilis strain 3, Muller Hinton broth-cation adjusted) was greater than 128, the Minimum inhibitory concentration ([5]; Proteus mirabilis strain 4, Muller Hinton broth-cation adjusted) was greater than 128 and the Minimum inhibitory concentration ([5]; Proteus mirabilis strain 5, Muller Hinton broth-cation adjusted) was greater than 128. For the same molecule, the Minimum inhibitory concentration ([6]; Staphylococcus aureus strain 1, Muller Hinton broth-cation adjusted) was 8, the Minimum inhibitory concentration ([6]; Staphylococcus aureus strain 2, Muller Hinton broth-cation adjusted) was 16 and the Minimum inhibitory concentration ([6]; Staphylococcus aureus strain 3, Muller Hinton broth-cation adjusted) was 8. For the same molecule, the Minimum inhibitory concentration ([6]; Staphylococcus aureus strain 4, Muller Hinton broth-cation adjusted) was 8, the Minimum inhibitory concentration ([6]; Staphylococcus aureus strain 5, Muller Hinton broth-cation adjusted) was 8 and the Minimum inhibitory concentration ([7]; Escherichia coli strain 1) was 0.5. The Minimum inhibitory concentration ([7]; Escherichia coli strain 2) was 32, the Minimum inhibitory concentration ([7]; Escherichia coli strain 3) was 16 and the Minimum inhibitory concentration ([7]; Escherichia coli strain 4) was 32. It also gave a Minimum inhibitory concentration ([7]; Escherichia coli strain 5) of 16, a Minimum inhibitory concentration ([8]; Serratia marcescens strain 1, Muller Hinton broth-cation adjusted) greater than 128 and a Minimum inhibitory concentration ([8]; Serratia marcescens strain 2, Muller Hinton broth-cation adjusted) greater than 128. It also gave a Minimum inhibitory concentration ([8]; Serratia marcescens strain 3, Muller Hinton broth-cation adjusted) greater than 128, a Minimum inhibitory concentration ([8]; Serratia marcescens strain 4, Muller Hinton broth-cation adjusted) greater than 128 and a Minimum inhibitory concentration ([8]; Serratia marcescens strain 5, Muller Hinton broth-cation adjusted) greater than 128.
